{"source": "patent US20120259126A1", "about": "“[…]” (UNIVERSITAT HEIDELBERG, priority 2009, published 2012)", "settings": "24° C.", "data": [{"smiles": "C1CCOC1.C1CCOC1.C1CCOC1.C1CCOC1.CC(C)(C)c1cc2c(c(C(C)(C)C)c1)O[B-]1(Oc3c-2cc(C(C)(C)C)cc3C(C)(C)C)Oc2c(cc(C(C)(C)C)cc2C(C)(C)C)-c2cc(C(C)(C)C)cc(C(C)(C)C)c2O1.[Li+]", "note": "[lithium tetrakis(tetrahydrofuran)bis(3,3′,5,5′-tetra-tert-butyl-2,2′-diphenolato)borate(III)]", "values": [{"measurement": "solubility in pentane (maximum concentrations)", "value": "at least 21 g/L"}]}]}
